The text below walks through data of US20080312435A1, “Imine Compound” (TAISHO PHARMACEUTICAL CO., LTD., priority 2004, published 2008).

The structures appear in SMILES notation.

Data set [1] deals with Jcl: ICR-series male mice. Kind of data set: Writhing test with acetic acid in mouse. The format is in vivo. The settings on record: orally administered 30 mg/kg, acetic acid i.p. one hour after administration. How it is done: Writhing Test with Acetic Acid in Mouse
This test was performed in accordance with the method of Futaki N et al. (Gen Pharmacol. 24(1):105-110 (1993). A test compound suspended in a 5% gum Arabic solution was orally administered to Jcl: ICR-series male mice (5 weeks old). One hour after the administration of the test compound, a 0.9% aqueous acetic acid solution was intraperitoneally administered. Five minutes after the administration, the number of abdomen stretch movements (pain-related behavior) were counted for 10 minutes. Only the 5% gum Arabic solution was orally administered to the control group. A pain-related behavior inhibition rate (%) was obtained based on the following equation.
(In writhing tests, fewer writhes than in controls are read as antinociception.)

Data set [2] addresses T1, human CB2 receptor (Homo sapiens, UniProt P34972).
T1 construct: expressed in transfected cells
Kind of data set: Human CB2 receptor binding inhibition test ([3H]CP-55,940, CHO membrane fractions). The settings on record: [3H]CP-55,940, membrane fractions of CHO cells stably expressing human CB2 receptor, 25° C., 2 hours; read-out: CB2 IC50 (Inhibition of binding to human CB2 receptor). The method in brief: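 Membranes from CHO-DHFR(−) cells stably expressing human CB2 used for [3H]CP-55,940 binding; filter-bound radioactivity counted by scintillation after washes with 0.1% BSA buffer. Nonspecific binding defined with 2.0 μM CP-55,940; IC50 for inhibition of specific binding.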

The target in data set [3] is T1, human CB2 receptor. Briefly: Test for GTPγS binding via human CB2 receptor. The settings on record: human CB2 receptor CHO membrane fractions; read-out: EC50 value (effective concentration exhibiting 50% activity), GTPγS binding. The data set is classed as biochemical. How it is done:
Test for GTPγS Binding Via Human CB2 Receptor
The CHO cells capable of stably expressing the human CB2 receptor were prepared in the same manner as in Experimental Example 1.
A general note: GTPγS resists hydrolysis and so accumulates on activated G proteins.

The test system of data set [4] is Balb/c male mice. Kind of data set: Test for edema on ear in mouse (PMA-induced). The data set is classed as in vivo. The settings on record: 1 mg per murine ear, PMA 0.8 μg, measured five hours later. How it is done: Test for Edema on Ear in Mouse
Using Balb/c male mice (5 weeks old), a test compound dissolved in acetone was applied in an amount of 20 μL to the inside the ear. Ten minutes after the application of the test compound, an acetone solution (20 μL) containing 0.8 μg of PMA (phorbol 12-myristate 13-acetate) was applied. Five hours later, the thickness (hyperplasia) of the ear was measured by a dial sickness gauge. Acetone alone was applied to the control group. The inhibition rate (%) of edema on the ear was calculated based on the following equation.

In data set [5] the target is T2, human CB1 receptor (Homo sapiens, UniProt P21554).
T2 construct: expressed in transfected cells
T2 sequence (P21554 whole entry): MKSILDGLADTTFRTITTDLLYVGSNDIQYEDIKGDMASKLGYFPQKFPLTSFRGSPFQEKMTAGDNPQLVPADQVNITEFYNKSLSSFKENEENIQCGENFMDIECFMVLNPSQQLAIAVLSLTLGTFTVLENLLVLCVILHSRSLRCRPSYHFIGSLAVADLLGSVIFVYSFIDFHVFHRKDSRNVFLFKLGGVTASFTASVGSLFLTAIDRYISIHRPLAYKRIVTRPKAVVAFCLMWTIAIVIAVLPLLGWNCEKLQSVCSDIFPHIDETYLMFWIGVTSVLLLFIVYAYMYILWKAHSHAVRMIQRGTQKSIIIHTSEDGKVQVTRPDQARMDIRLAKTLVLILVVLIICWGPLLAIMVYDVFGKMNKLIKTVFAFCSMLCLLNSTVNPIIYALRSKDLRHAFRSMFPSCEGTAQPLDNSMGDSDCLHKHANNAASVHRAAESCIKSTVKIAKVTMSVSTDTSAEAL
Kind of data set: Human CB1 receptor binding inhibition test. The settings on record: CHO-DHFR(−) cells stably expressing human CB1 receptor, same manner as Experimental Example 1. On the procedure:
Human CB1 Receptor Binding Inhibition Test
The CHO-DHFR(−) cells capable of stably expressing a CB1 receptor were prepared in the same manner as in Experimental Example 1. The binding test to the human CB1 receptor was performed to obtain 50% inhibitory concentration (IC50 value) of a test compound.

T1 sequence (P34972 whole entry): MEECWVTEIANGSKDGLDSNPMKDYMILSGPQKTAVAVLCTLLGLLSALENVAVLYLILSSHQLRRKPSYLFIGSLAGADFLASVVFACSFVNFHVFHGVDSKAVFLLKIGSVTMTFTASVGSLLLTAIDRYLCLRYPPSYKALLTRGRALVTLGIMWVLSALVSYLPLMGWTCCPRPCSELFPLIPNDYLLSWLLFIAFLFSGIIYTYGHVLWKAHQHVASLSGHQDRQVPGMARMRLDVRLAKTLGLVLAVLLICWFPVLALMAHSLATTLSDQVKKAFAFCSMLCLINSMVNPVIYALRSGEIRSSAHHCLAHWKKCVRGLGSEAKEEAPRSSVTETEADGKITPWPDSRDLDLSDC

`CC(C)(C)c1nn(CC2CC2)/c(=N/C(=O)c2nccc3ccccc23)s1` [compound 510] came in with a melting point of 89 to 90 °C. The “pain-related behavior inhibition rate” value in data set [1] came to 19.6%. Besides, the concentration for half-maximal inhibition (IC50) in data set [2] is 13.2 nM.
For `Cc1c(C(C)(C)C)s/c(=N\S(=O)(=O)c2ccccc2C(F)(F)F)n1CC1CC1` [compound 411], the “pain-related behavior inhibition rate” value in data set [1] is reported as 49.0%. In addition, the concentration for half-maximal inhibition (IC50) in data set [2] came out at 8.7 nM.
As to `COc1ccc(C(F)(F)F)cc1C(=O)/N=c1\cc(C(C)(C)C)sn1CC1CC1` [compound 59], the melting point lay within 95 to 97 °C. Further, in data set [1], the “pain-related behavior inhibition rate” value stood at 44.8%. Moreover, the IC50 in data set [2] worked out at 7.2 nM.
Regarding `Cn1c(C(C)(C)C)c/c(=N\C(=O)c2cccc(C(F)(F)F)c2F)n1CC1CC1` [compound 474, N-(5-t-butyl-2-cyclopropylmethyl-1,2-dihydro-1-methylpyrazol-3-ylidene)-2-fluoro-3-(trifluoromethyl)benzamide], the “pain-related behavior inhibition rate” value in data set [1] came to 61.9%. In data set [2], the half-inhibitory concentration (IC50) was 4.9 nM. Moreover, in data set [3], the EC50 was found to be 2.3 nM. Also, the “inhibition rate of edema on the ear” value in data set [4] worked out at 37%.
`CCOc1ccc(C(=O)/N=c2\sc(C(C)(C)C)c(C)n2CC2CC2)c(OCC)c1` [compound 237] gave a melting point of 116 to 118 °C. Moreover, the IC50 in data set [5] worked out at 200 nM. Also, the IC50 in data set [2] was determined as 13.1 nM.
`COc1cccc(F)c1C(=O)/N=c1\sc(C(C)(C)C)c(C)n1CC1CC1` [compound 263] returned a melting point of 119 to 121 °C. The IC50 in data set [5] amounted to 56 nM. In data set [2], the 50% inhibitory concentration (IC50) was 0.6 nM.
Compound `CCOCCn1c(C)c(C(C)C)s/c1=N\C(=O)c1cccc(C(F)(F)F)c1F` [compound 115] showed a melting point of 96 to 97 °C. Also, the IC50 in data set [5] is 25 nM. In data set [2], the IC50 is 0.5 nM.
In the case of `Cc1c(C(C)(C)C)s/c(=N\C(=O)c2cc(Cl)ccc2Cl)n1CC1CC1` [compound 232], the melting point is 129 to 131 °C. This compound also showed a half-inhibitory concentration (IC50) in data set [5] of 211 nM. For the same compound, in data set [2], the concentration for half-maximal inhibition (IC50) stood at 0.5 nM.
In turn, `Cc1c(C(C)(C)C)s/c(=N\C(=O)c2c(F)cccc2F)n1CC1CC1` [compound 223] showed a melting point of 123 to 124 °C. In data set [5], the concentration for half-maximal inhibition (IC50) amounted to 168 nM. In addition, the IC50 in data set [2] was found to be 2 nM.
The like results for `Cc1c(C(C)(C)C)s/c(=N\C(=O)c2c(F)ccc(C(F)(F)F)c2F)n1CC1CC1` [compound 288] were, in that order, 109 to 111 °C, 49 nM and 0.2 nM.
Regarding `COc1cc(Cl)ccc1C(=O)/N=c1\sc(C(C)(C)C)c(C)n1CC1CC1` [compound 264], the melting point is 163 to 165 °C. The compound further showed a 50% inhibitory concentration (IC50) in data set [5] of 181 nM. In addition, the IC50 in data set [2] came out at 1 nM.
In the case of `CCc1ccccc1C(=O)/N=c1\sc(C(C)(C)C)c(C)n1CC1CC1` [compound 181], the melting point lay within 120 to 122 °C. This compound displayed an IC50 in data set [5] of 115 nM. Also, the IC50 in data set [2] was 0.8 nM.
Turning to `O=C(/N=c1\ccccn1CC1CC1)c1cccc(C(F)(F)F)c1F` [compound 9], the melting point fell in the range of 58.5 to 59 °C. Further, in data set [2], the IC50 turned out to be 11.3 nM. The EC50 in data set [3] came to 23.7 nM.
For the compound `Cc1ccc(C(=O)/N=c2\sc(C(C)(C)C)c(C)n2CC2CC2)c(Br)c1` [compound 246], the melting point lay within 82 to 84 °C. In data set [5], this compound returned a half-maximal inhibitory concentration (IC50) of 319 nM. Besides, the IC50 in data set [2] amounted to 0.8 nM.
With `COc1ccc(Cl)cc1C(=O)/N=c1\sc(C(C)(C)C)c(C)n1CC1CC1` [compound 265], the melting point was in the range of 98 to 100 °C. Also, the IC50 in data set [5] worked out at 100 nM. In addition, the half-inhibitory concentration (IC50) in data set [2] worked out at 1 nM.
In the case of `Cc1c(C(C)(C)C)s/c(=N\C(=O)c2ccccc2C(C)C)n1CC1CC1` [compound 182], the melting point fell in the range of 168 to 169 °C. In addition, in data set [5], the half-maximal inhibitory concentration (IC50) was determined as 22 nM. Also, in data set [2], the concentration for half-maximal inhibition (IC50) is 0.3 nM.
In turn, `Cc1c(C(C)(C)C)s/c(=N\C(=O)c2cc(Cl)cnc2Cl)n1CC1CC1` [compound 309] came in with a melting point of 113 to 134 °C. Moreover, the half-maximal inhibitory concentration (IC50) in data set [5] worked out at 405 nM. The IC50 in data set [2] stood at 2.1 nM.
The compound `Cc1c(C(C)(C)C)s/c(=N\C(=O)c2c(F)cccc2C(F)(F)F)n1CC1CC1` [compound 256] gave a melting point of 128 to 130 °C. For the same compound, the IC50 in data set [5] is 102 nM. For the same compound, the half-inhibitory concentration (IC50) in data set [2] was found to be 1.1 nM.
The like results for `COCCn1c(C)c(C)s/c1=N\C(=O)c1cccc(C(F)(F)F)c1F` [compound 104] were, in that order, 182 to 183 °C, 327 nM and 1.7 nM.
`Cc1c(Cl)cccc1C(=O)/N=c1\sc(C(C)(C)C)c(C)n1CC1CC1` [compound 243] returned a melting point of 88 to 90 °C. For the same compound, the IC50 in data set [5] was determined as 73 nM. The IC50 in data set [2] worked out at 0.4 nM.
For the compound `Cc1c(C(C)(C)C)s/c(=N\C(=O)c2c(Cl)cncc2Cl)n1CC1CC1` [compound 308], the melting point was in the range of 260 to 261 °C. The compound further returned an IC50 in data set [5] of 336 nM. Besides, the IC50 in data set [2] stood at 3.6 nM.
The like results for `COc1ccc(F)cc1C(=O)/N=c1\sc(C(C)(C)C)c(C)n1CC1CC1` [compound 262] were, in that order, 87 to 89 °C, 435 nM and 0.6 nM.
Consider `COc1cccc(C(=O)/N=c2\sc(C(C)(C)C)c(C)n2CC2CC2)c1OC` [compound 235], for which the melting point fell in the range of 93 to 94 °C. Besides, the IC50 in data set [5] came out at 315 nM. In addition, in data set [2], the half-maximal inhibitory concentration (IC50) amounted to 3.4 nM.
`Cc1c(C(C)(C)C)s/c(=N\C(=O)C2CCCCC2)n1CC1CC1` [compound 332] displayed a melting point of 141 to 142 °C. Moreover, in data set [5], the IC50 stood at 98 nM. The half-inhibitory concentration (IC50) in data set [2] was 3.3 nM.
`COc1ccc(C(=O)/N=c2\sc(C(C)(C)C)c(C)n2CC2CC2)c(OC)c1OC` [compound 286] yielded a melting point of 88 to 89 °C. In data set [5], this compound had an IC50 of 435 nM. Further, the half-maximal inhibitory concentration (IC50) in data set [2] came out at 12.7 nM.
Taken in the same sequence, the figures for `Cc1c(C(C)(C)C)s/c(=N\C(=O)c2ccccc2C(F)(F)F)n1CC1CC1` [compound 183] were 90 to 91 °C, 138 nM and 0.5 nM.
For `COc1ccc(C(F)(F)F)cc1C(=O)/N=c1\sc(C(C)(C)C)c(C)n1CC1CC1` [compound 267], the melting point lay within 175 to 177 °C. Further, the “pain-related behavior inhibition rate” value in data set [1] is 59.9%. Further, the 50% inhibitory concentration (IC50) in data set [2] was determined as 1.1 nM. In data set [3], the EC50 is 0.4 nM. Besides, the “inhibition rate of edema on the ear” value in data set [4] came out at 84%.
Take `Cc1ccnc(C)c1C(=O)/N=c1\sc(C(C)(C)C)c(C)n1CC1CC1` [compound 299]: the melting point is 156 to 157 °C. For the same compound, the half-maximal inhibitory concentration (IC50) in data set [5] stood at 28 nM. Further, the IC50 in data set [2] is 2.8 nM.
As to `Cc1c(C(C)(C)C)s/c(=N\C(=O)c2cccnc2Cl)n1CC1CC1` [compound 301], the melting point is 124 to 125 °C. In data set [5], this compound came in with an IC50 of 191 nM. Moreover, in data set [2], the IC50 came to 2 nM.
Turning to `COc1ccc(C(=O)/N=c2\sc(C(C)(C)C)c(C)n2CC2CC2)c(C)c1` [compound 261], the melting point lay in the range of 95 to 96 °C. The half-maximal inhibitory concentration (IC50) in data set [5] came out at 375 nM. The 50% inhibitory concentration (IC50) in data set [2] was 1 nM.
Consider `CCOCCn1/c(=N/C(=O)c2cccc(Cl)c2C)cc(C(C)(C)C)n1C` [compound 490], for which the melting point was in the range of 127 to 128 °C. In addition, in data set [5], the IC50 was determined as 291 nM. The 50% inhibitory concentration (IC50) in data set [2] amounted to 10 nM.
As to `Cc1c(C(C)(C)C)s/c(=N\C(=O)c2ncccc2Br)n1CC1CC1` [compound 304], the melting point lay within 141 to 142 °C. The same compound registered a 50% inhibitory concentration (IC50) in data set [5] of 372 nM. In data set [2], the IC50 is 2.3 nM.
Consider `CCOCCn1c(C)c(C)s/c1=N\C(=O)c1cccc(C(F)(F)F)c1F` [compound 107], for which the melting point was 147 to 148 °C. The compound also returned an IC50 in data set [5] of 18 nM. Moreover, the IC50 in data set [2] turned out to be 0.5 nM.
In turn, `CCOCCn1/c(=N/C(=O)c2cccc(Br)c2C)cc(C(C)(C)C)n1C` [compound 491] displayed a melting point of 125 to 126 °C. In data set [5], the half-inhibitory concentration (IC50) was determined as 172 nM. Also, the IC50 in data set [2] was found to be 9.3 nM.

The IC50 is the concentration at which inhibition is half-maximal. By melting point is commonly meant the temperature, or range, at which the solid turns liquid.
